From patent US20180369186A1, “METHOD FOR MODULATING AUTOPHAGY AND APPLICATIONS THEREOF” (JAWAHARLAL NEHRU CENTRE FOR ADVANCED SCIENTIFIC RESEARCH, priority 2015, published 2018) come the findings set out here.

Assay [1] has as its system HeLa cells (autophagosomes and autolysosomes). Briefly: Tandem RFP-GFP-LC3B (traffic light) assay in HeLa cells. The conditions noted are these: ptf-LC3 transfected HeLa; 2 hours. The format is cell-based, human. The protocol: Transfection is done on a 60 mm dish with HeLa cells at 60-70% confluency. Cells were transfected with tandem RFP-GFP-MAP1LC3B construct (Addgene plasmid #21074) using 5 μl of Lipofectamine 2000 (11668-019, Invitrogen) and 2.5 μg of DNA (2:1 ratio) diluted in 100 μl of OPTI-MEM (31985-070, Invitrogen) separately. 72 hours after transfection cells are either left untreated or treatment with various concentrations of Bay11-7082 ZPCK is done for 2 hours. Starvation is induced by treating cells with Earle's balanced salt solution (EBBS). After treatment, cells are fixed in 4% paraformaldehyde and permeabilized using 0.25% Triton X-100, The coverslip is mounted with […] antifade reagent (H-1000, Vector laboratories). Imaging for HeLa cells is carried out using Delta vision microscope (Olympus 60×/1.4, Plan ApoN, excitation and emission filter Cy5, FITC and TRITC, polychroic Quad).
For tandem RFP-EGFP-LC3 assay, sub-confluent cells are seeded in 60 mm dishes, transfected with ptf LC3 construct and allowed to express for 24 h. Later, cells are trypsinized, reseeded (10^5 cells) and allowed to attach on cover slips in a 12 well plate.
For mammalian cell microscopy, after 2 h of treatment, coverslips are fixed using 4% paraformaldehyde (PFA) (Sigma) and permeabilized using Triton X-100 (0.2%, HiMedia). Coverslips are mounted using antifade, Vectashield (Vector laboratories). For antibody staining, coverslips are blocked in 5% BSA for 1 h, incubated in primary antibody overnight and subsequent probing with fluorescent conjugated antibody. Coverslips are mounted using antifade, Vectashield (Vector laboratories).
Images are acquired using DeltaVisionElitewidefield microscope (API, GE) with following filters: DAPI (390/18 and 435/48), FITC (490/20 and 529/38), TRITC (542/27 and 594/45) and Cy5 (632/22 and 676/34). Images are processed using DV SoftWoRX software. Autophagosome (yellow) and autolysosome (red) are counted using Cell Counter plug-in in ImageJ software (NIH) and graphically represented as fold difference versus untreated (FIG. 3E).
Sub-confluent HeLa and/or SH-SY5Y cells are seeded into 60 mm cell culture dishes, then transfected with ptf LC3 construct and/or siRNA and allowed to express for 48 h. Cells are trypsinized, seeded again on poly-D-lysine coated cover slips in a 12 or 24 well plates and allowed to attach. After appropriate treatments, the coverslips containing cells are processed for imaging. For immunofluorescent antibody staining, the cover slips are incubated in primary antibody at 4° C. for overnight followed by secondary antibody incubation at room temperature.
For imaging the mammalian cells, after appropriate treatments, coverslips containing cells are fixed using 4% paraformaldehyde (PFA) (Sigma) and then permeabilized using Triton X-100 (0.2%, HiMedia). On slide, coverslips are mounted using antifade, Vectashield mounting medium (Vector laboratories). For antibody staining, coverslips are blocked using 5% BSA for 1 h at room temperature, then incubated with primary antibody at 4° C., overnight and then subsequently probed with corresponding fluorescent dye conjugated secondary antibody.

Assay [2] relates to Pot1-GFP (peroxisomes). Put plainly: Pot1-GFP pexophagy assay. The conditions noted are these: starvation medium; vs untreated cells. The format is cell-based, S. cerevisiae. The protocol:
Pot1-GFP positive strains are allowed to grow till the A600 reached 0.8-1 in YPD. Peroxisome biogenesis is induced by growing these cells in oleate medium (0.1% oleate, 0.5% Tween-40, 0.25% yeast extract, 0.5% peptone, and 5 mM phosphate buffer) for 12hours. Cells are harvested, washed twice to remove traces of oleate and transferred to starvation medium without nitrogen, at inoculum density A600 3, to induce pexophagy. Cells are collected at various time intervals after pexophagy induction and processed by TCA method.
Pot1-GFP positive strains are allowed to grow in yeast extract peptone dextrose (YPD) (2% dextrose, 2% peptone and 1% yeast extract) till the Absorbance at 600 nm reaches 0.6-0.8. Peroxisome biogenesis is induced by growing these cells in YPG medium (1% yeast extract, 2% peptone, 3% glycerol) for 12 hours.
Cells are harvested, washed twice to remove traces of oleate and transferred to starvation medium with and without Acacetin, at. inoculum density Absorbance at 600 nm 3/ml, to induce pexophagy. Cells are collected at various time intervals after pexophagy induction and processed by TCA precipitation.

Assay [3] deals with Salmonella typhimurium SL1344. Briefly: Burden assay: intracellular Salmonella CFU in U1752 and HeLa cells. The format is cell-based. The protocol:
U1752 cell line and HeLa cell line are infected with Salmonella typhimurium SL1344, and grown overnight in micro-aerophilic condition, at an MOI of 400 for one hour. The cells are treated with media containing Gentamycin at the concentration of 100 μg/ml for 2 hours to kill the extracellular bacteria. The cells are then treated with compounds and incubated for ?hours to 4 hours. At the end, the cells are lysed using lysis buffer (0.1% SDS, 1% Triton X-100, 1× PBS) and the intercellular Salmonella is plated and the CFU is counted. The CFU of Salmonella in the Acacetin treated cells is reduced by almost 2 fold compared to that of the untreated cells. Statistical analysis of the results is done using Graphpad prism—two tailed T test (FIG. 12)

The subject of assay [4] is Salmonella typhimurium SL1344. Put plainly: Growth curve of Salmonella typhimurium SL1344. The settings on record: Luria Broth, 10 hours. It is filed as cell-based. The protocol:
A single colony of Salmonella typhimurium WT strain SL1344 grown overnight at 37° C. is diluted in Luria Broth media to get an O.D of 0.2. The diluted culture is used for treatments with Acacetin and Acacetin with gentamycin (100 μg/ml). The growth curve of the culture is obtained by measuring the absorbance at 600 nm using varioskan Flash Multiplate Spectrophotometer at 300 rpm and O.D taken at every 30 minutes interval for 10 hours is plotted using GraphPad Prism.

The test system of assay [5] is mcherry Salmonella typhimurium. Briefly: Co-localization of GFP-LC3 / p62 with mcherry Salmonella in HeLa cells. It is filed as cell-based, human. The protocol: HeLa cells are transfected with GFP-LC3 using lipofectamine 3000. After 24 hours, cells are infected with Salmonella typhimurium WT strain SL1344 with an MOI of 400 for 15 minutes followed by gentamycin treatment at the concentration of 100 μg/ml for 10 minutes to kill the extracellular bacteria.
The cells are treated with and without Acacetin and incubated for different time points (1, 2, 4 and 6 hours) at 37° C. Quantitation of LC3 co-localization with Salmonella typhimurium SL1344 is done using ImageJ-Cell counter option (FIG. 14), to check whether with compound (Acacetin) treatment more autophagy machinery is recruited towards the bacteria.

The subject of assay [6] is mcherry-Salmonella typhimurium SL1344. Briefly: Live cell microscopy of Salmonella replication in HeLa cells. The format is cell-based. The conditions noted are these: GFP-LC3 transfected HeLa; vs untreated samples. The protocol: GFP-LC3 transfected HeLa cells is infected with mcherry-Salmonella typhimurium SL1344 for 15 minutes (MOI-400) and is treated with gentamycin for 10 minutes. The cells are then washed with 1× PBS and changed to either only media (a) and media containing Acacetin (b) and imaged by FV10i-olympus confocal live cell imaging microscope, using 60× water immersion lens, with confocality aperature set to 1.0. Images are taken at an interval of 15 minutes. (c) The intensity of the Red channel denoting the mcherry tagged S. typhimuriumis measured using image J—Stacks T function (intensity of red channel signifies the replication of the S. typhimurium over time). The replication of Salmonella in Acacetin treated samples is restricted as compared to that of untreated samples (FIG. 15)

SMILES strings stand for the structures.

Consider `COc1ccc(-c2cc(=O)c3c(O)cc(O)cc3o2)cc1` [Acacetin, 5,7-dihydroxy-2-(4-methoxyphenyl)chromen-4-one], for which, in assay [1], the “number of autolysosomes (red dots)” value is “increase in the number of autolysosomes”. In assay [2], the “accumulation of free GFP over time (pexophagy)” value is “enhanced accumulation of free GFP”. Moreover, the “functionality in Atg5 KO HeLa cell line” value in assay [3] (Atg5 KO HeLa) is listed as “non-functionality”. Moreover, in assay [3] (U1752 and HeLa cell lines, MOI 400), the “reduction of CFU of intracellular Salmonella vs untreated” value was around 2 fold. In addition, the “anti-microbial activity against Salmonella typhimurium SL1344” value in assay [4] is reported as “does not have any anti-microbial activity”. Moreover, in assay [5], the “temporal recruitment of LC3 to mcherry Salmonella typhimurium” value is reported as “increases temporal recruitment of LC3” and the “temporal recruitment of p62 to mcherry Salmonella typhimurium” value is given as “increased temporal recruitment of p62”. Besides, in assay [6], the “replication of Salmonella (red channel intensity)” value was “restricted”.
